# In patent US10815230B2, “Casein kinase 1 delta inhibitor” (ELECTROPHORETICS LIMITED, priority 2015, dated 2020):
# Several values for one entry are separate records, joined by “and”; a condition that tells them apart may be missing. Equal entries are not always repeated. Where two headings read alike, the source gives them in different places.
# Experiments:
# [1] = molecular target: CLK1 (Homo sapiens, UniProt P49759); test: KINOMEscan binding assay; details: read-out: % Ctrl @ 10000 nM
# [2] = molecular target: MERTK (Homo sapiens, UniProt Q12866); test: KINOMEscan binding assay; details: read-out: % Ctrl @ 10000 nM
# [3] = molecular target: ABL1 (Q252H) phosphorylated (Homo sapiens, UniProt P00519, Q252H); test: KINOMEscan binding assay; details: read-out: % Ctrl @ 10000 nM
# [4] = molecular target: ADCK3 (Homo sapiens, UniProt Q8NI60); test: KINOMEscan binding assay; details: read-out: % Ctrl @ 10000 nM
# [5] = molecular target: JAK1 (JH1domain-catalytic) (Homo sapiens, UniProt P23458); test: KINOMEscan binding assay; details: read-out: % Ctrl @ 10000 nM
# [6] = molecular target: CASK (Homo sapiens, UniProt O14936); test: KINOMEscan binding assay; details: read-out: % Ctrl @ 10000 nM
# [7] = molecular target: CDKL1 (Homo sapiens, UniProt Q00532); test: KINOMEscan binding assay; details: read-out: % Ctrl @ 10000 nM
# [8] = Determination of compound in plasma and brain by LC-MS/MS; type: in vivo; details: TMHT mice of experiment 5.5, 30 mg/kg orally for 8 weeks; for concentration in cortex: cortex at sacrifice; for concentration in plasma: plasma at sacrifice; for concentration in rest of brain: rest of brain at sacrifice; for concentration at 8 weeks: TMHT, mouse, oral, 30 mg/kg
# Procedure: Plasma and brain samples derived from the experiments in 5.5 were pooled from single time point and were analysed for the presence and concentration of Comparative Compound 324 and Compound A by LC-MS/MS after protein precipitation over the calibration range of 0.5-10,000 ng/mL. Chrysin (Sigma®), control mouse plasma and brain (obtained from a commercial supplier) were used as internal standards.
# All instrument control, data collection, peak area integration and storage were performed using Thermo Finnigan TSQ Quantum Ultra Mass Spectrometer in conjunction with LCQuan software (v.2.5.6). The mass spectrometer response (peak area ratio of analyte to internal standard) of each calibration standard was calculated by Watson LIMS (v. 7.2) and plotted against the nominal concentration. A weighted least square quadratic regression analysis was used to calculate an equation of the calibration line using one of the standard fits in Watson LIMS. Concentration of Comparative Compound 324 and Compound A in the plasma and brain samples were back calculated from the calibration lines to 3 significant figures. All results reported are from samples that passed the following criteria:
# [formula] • At least 7 calibration standards within ±20% RE of their target concentrations. • At least 66% of QC samples within ±20% RE of their respective target values. Within at least one acceptable at each level when n=3 and two when n=6.
# The analytical method was as summarised below in Table 14:
# In total 32 samples were analysed. Quality control (QC) samples at concentration of 10, 100 and 1000 ng/mL were freshly prepared on the day of the analysis.
# [9] = molecular target: DMPK2 (Homo sapiens, UniProt Q6DT37); test: KINOMEscan binding assay; details: read-out: % Ctrl @ 10000 nM
# [10] = molecular target: PIP5K1A (Homo sapiens, UniProt Q99755); test: KINOMEscan binding assay; details: read-out: % Ctrl @ 10000 nM
# [11] = molecular target: TSSK1B (Homo sapiens, UniProt Q9BXA7); test: KINOMEscan binding assay; details: read-out: % Ctrl @ 10000 nM
# [12] = molecular target: CSNK2A2 (Homo sapiens, UniProt P19784); test: KINOMEscan binding assay; details: read-out: % Ctrl @ 10000 nM
# [13] = molecular target: CDK8 (Homo sapiens, UniProt P49336); test: KINOMEscan binding assay; details: read-out: % Ctrl @ 10000 nM
# [14] = molecular target: EGFR (G719C) (Homo sapiens, UniProt P00533, G719C); test: KINOMEscan binding assay; details: read-out: % Ctrl @ 10000 nM
# [15] = molecular target: EGFR (L747-E749del, A750P) (Homo sapiens, UniProt P00533, A750P/DEL747-749); test: KINOMEscan binding assay; details: read-out: % Ctrl @ 10000 nM
# [16] = molecular target: ACVR2B (Homo sapiens, UniProt Q13705); test: KINOMEscan binding assay; details: read-out: % Ctrl @ 10000 nM
# [17] = molecular target: CDKL2 (Homo sapiens, UniProt Q92772); test: KINOMEscan binding assay; details: read-out: % Ctrl @ 10000 nM
# [18] = molecular target: ERK2 (Homo sapiens, UniProt P28482); test: KINOMEscan binding assay; details: read-out: % Ctrl @ 10000 nM
# [19] = molecular target: ADCK4 (Homo sapiens, UniProt Q96D53); test: KINOMEscan binding assay; details: read-out: % Ctrl @ 10000 nM
# [20] = molecular target: EIF2AK1 (Homo sapiens, UniProt Q9BQI3); test: KINOMEscan binding assay; details: read-out: % Ctrl @ 10000 nM
# [21] = molecular target: p38-gamma (Homo sapiens, UniProt P53778); test: KINOMEscan binding assay; details: read-out: % Ctrl @ 10000 nM
# [22] = molecular target: SBK1 (Homo sapiens, UniProt Q52WX2); test: KINOMEscan binding assay; details: read-out: % Ctrl @ 10000 nM
# [23] = molecular target: PRKD1 (Homo sapiens, UniProt Q15139); test: KINOMEscan binding assay; details: read-out: % Ctrl @ 10000 nM
# [24] = molecular target: JNK3 (Homo sapiens, UniProt P53779); test: KINOMEscan binding assay; details: read-out: % Ctrl @ 10000 nM
# [25] = molecular target: CAMK1 (Homo sapiens, UniProt Q14012); test: KINOMEscan binding assay; details: read-out: % Ctrl @ 10000 nM
# [26] = molecular target: PIM2 (Homo sapiens, UniProt Q9P1W9); test: KINOMEscan binding assay; details: read-out: % Ctrl @ 10000 nM
# [27] = molecular target: T1, MAP3K4 (Homo sapiens, UniProt Q9Y6R4); test: KINOMEscan binding assay; details: read-out: % Ctrl @ 10000 nM
# T1 construct: T7 phage fusion (most assays) or DNA label after HEK293 expression; purchased DiscoveRx (KINOMEscan, LeadHunter Discovery services); host or cells: T7 phage in E. coli (BL21-derived) or HEK293
# [28] = molecular target: KIT (V559D, T670I) (Homo sapiens, UniProt P10721, T670I/V559D); test: KINOMEscan binding assay; details: read-out: % Ctrl @ 10000 nM
# [29] = molecular target: MLK2 (Homo sapiens, UniProt Q02779); test: KINOMEscan binding assay; details: read-out: % Ctrl @ 10000 nM
# [30] = molecular target: T2, YSK1 (Homo sapiens, UniProt O00506); test: KINOMEscan binding assay; details: read-out: % Ctrl @ 10000 nM
# T2 construct: purchased DiscoveRx (KINOMEscan, LeadHunter Discovery services)
# [31] = molecular target: PKN2 (Homo sapiens, UniProt Q16513); test: KINOMEscan binding assay; details: read-out: % Ctrl @ 10000 nM
# [32] = hippocampus at sacrifice, LC-MS/MS, one value per mouse
# Sequence of EGFR (L747-E749del, A750P) (P00533 with tags, fused parts or gaps DEL747-749/A750P): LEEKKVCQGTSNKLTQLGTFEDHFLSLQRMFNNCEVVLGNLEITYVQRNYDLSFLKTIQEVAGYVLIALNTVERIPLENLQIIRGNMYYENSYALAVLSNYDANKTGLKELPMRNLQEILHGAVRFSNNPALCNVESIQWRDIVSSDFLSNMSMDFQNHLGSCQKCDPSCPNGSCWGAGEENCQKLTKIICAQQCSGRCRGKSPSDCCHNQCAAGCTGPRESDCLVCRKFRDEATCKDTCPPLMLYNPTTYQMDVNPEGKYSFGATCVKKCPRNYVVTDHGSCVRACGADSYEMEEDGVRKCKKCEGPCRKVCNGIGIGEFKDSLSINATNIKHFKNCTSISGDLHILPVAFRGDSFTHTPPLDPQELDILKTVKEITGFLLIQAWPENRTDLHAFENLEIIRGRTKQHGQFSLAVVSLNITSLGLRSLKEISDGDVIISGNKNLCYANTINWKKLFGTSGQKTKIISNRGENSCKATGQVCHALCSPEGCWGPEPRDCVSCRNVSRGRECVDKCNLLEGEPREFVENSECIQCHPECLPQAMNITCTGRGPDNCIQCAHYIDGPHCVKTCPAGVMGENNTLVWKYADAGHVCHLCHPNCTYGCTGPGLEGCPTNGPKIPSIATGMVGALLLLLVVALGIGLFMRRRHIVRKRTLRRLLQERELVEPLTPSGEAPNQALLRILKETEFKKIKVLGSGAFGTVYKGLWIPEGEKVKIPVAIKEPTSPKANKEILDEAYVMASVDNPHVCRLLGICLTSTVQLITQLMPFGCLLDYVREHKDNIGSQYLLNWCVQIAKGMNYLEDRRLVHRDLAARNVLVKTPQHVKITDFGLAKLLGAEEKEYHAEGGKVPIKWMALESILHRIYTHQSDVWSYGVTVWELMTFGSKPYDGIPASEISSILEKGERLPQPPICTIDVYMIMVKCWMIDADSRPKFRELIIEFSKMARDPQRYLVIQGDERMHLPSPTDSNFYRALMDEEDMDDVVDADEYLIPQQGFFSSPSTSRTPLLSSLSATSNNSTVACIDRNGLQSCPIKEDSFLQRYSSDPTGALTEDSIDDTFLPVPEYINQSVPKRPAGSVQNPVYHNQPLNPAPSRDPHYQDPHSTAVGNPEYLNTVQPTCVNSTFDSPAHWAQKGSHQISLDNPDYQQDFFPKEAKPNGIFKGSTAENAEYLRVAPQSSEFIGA
# Sequence of KIT (V559D, T670I) (P10721 26-976 V559D/T670I): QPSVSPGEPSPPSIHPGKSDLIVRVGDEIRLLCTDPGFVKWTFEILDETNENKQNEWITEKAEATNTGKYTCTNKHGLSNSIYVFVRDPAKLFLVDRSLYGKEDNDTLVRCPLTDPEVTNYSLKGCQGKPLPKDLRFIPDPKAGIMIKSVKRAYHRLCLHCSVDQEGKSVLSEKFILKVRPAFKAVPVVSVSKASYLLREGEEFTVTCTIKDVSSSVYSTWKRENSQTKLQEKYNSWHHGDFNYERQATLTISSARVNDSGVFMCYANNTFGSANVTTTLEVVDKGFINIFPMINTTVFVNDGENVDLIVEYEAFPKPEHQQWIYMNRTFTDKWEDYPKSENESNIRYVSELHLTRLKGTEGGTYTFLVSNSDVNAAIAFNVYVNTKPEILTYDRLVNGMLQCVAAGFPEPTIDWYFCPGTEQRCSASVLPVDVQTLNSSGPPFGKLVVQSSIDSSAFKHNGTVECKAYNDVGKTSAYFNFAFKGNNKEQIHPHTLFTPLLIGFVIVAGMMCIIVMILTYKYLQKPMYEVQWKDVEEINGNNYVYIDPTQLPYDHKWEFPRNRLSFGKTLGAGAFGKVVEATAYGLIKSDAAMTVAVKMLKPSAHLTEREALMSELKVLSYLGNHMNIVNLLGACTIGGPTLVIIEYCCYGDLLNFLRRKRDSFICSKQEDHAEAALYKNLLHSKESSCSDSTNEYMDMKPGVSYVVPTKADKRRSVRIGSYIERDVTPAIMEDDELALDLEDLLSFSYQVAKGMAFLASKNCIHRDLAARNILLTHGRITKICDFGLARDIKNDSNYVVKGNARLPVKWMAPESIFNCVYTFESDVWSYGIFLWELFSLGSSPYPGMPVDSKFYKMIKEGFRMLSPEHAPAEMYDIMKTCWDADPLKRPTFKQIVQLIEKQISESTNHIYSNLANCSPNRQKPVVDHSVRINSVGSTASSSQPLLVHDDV
# Sequence of PIM2 (Q9P1W9 whole entry): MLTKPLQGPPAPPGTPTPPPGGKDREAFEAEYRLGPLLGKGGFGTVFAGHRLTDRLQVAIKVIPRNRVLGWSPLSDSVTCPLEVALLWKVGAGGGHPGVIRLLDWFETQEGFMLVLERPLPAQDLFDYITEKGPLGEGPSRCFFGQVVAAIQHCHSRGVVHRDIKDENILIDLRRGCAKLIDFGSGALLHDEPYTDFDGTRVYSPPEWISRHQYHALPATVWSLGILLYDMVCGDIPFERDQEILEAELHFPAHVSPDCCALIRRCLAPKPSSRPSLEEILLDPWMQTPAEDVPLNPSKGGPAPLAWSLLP
# Sequence of SBK1 (Q52WX2 whole entry): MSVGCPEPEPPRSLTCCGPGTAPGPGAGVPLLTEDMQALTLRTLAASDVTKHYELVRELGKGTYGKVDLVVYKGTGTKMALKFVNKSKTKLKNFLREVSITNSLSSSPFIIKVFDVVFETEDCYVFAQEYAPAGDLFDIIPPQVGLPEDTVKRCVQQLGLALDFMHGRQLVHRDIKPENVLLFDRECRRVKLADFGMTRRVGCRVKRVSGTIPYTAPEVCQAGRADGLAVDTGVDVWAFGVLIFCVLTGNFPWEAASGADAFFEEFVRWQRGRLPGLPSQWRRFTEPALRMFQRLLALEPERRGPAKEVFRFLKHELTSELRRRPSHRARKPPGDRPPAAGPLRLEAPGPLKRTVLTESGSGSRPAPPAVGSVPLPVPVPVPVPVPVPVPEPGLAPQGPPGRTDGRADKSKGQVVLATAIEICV
# Sequence of EGFR (G719C) (P00533 25-1210 G719C): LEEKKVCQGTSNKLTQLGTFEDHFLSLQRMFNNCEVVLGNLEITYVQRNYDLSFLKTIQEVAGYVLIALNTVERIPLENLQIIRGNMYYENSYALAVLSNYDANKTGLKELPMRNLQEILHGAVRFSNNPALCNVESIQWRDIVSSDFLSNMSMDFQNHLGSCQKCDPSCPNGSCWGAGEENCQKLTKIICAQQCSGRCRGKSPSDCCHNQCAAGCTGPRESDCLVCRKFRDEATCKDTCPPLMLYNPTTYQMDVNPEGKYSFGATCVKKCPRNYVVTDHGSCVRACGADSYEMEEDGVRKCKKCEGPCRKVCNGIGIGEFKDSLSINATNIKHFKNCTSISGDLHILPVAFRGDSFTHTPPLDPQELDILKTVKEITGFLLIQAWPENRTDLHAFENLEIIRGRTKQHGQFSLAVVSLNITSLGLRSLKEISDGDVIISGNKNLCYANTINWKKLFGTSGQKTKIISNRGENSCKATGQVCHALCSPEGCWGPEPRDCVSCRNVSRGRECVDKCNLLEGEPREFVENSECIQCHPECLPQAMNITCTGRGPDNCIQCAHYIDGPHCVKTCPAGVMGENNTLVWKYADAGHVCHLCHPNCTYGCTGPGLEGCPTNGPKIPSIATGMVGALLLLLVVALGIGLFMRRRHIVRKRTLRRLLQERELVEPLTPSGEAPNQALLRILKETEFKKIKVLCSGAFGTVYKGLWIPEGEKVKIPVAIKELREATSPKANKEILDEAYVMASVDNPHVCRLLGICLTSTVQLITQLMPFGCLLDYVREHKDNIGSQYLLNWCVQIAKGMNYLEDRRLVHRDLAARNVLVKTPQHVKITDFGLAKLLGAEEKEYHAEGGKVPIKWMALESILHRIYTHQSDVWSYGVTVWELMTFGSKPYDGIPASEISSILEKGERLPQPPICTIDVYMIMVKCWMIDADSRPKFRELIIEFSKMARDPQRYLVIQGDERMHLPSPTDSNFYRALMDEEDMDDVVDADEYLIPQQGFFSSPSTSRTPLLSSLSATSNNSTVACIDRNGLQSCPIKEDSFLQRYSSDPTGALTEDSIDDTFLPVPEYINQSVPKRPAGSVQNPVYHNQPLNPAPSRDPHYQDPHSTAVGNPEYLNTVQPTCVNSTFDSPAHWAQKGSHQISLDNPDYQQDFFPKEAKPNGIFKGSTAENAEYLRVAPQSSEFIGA
# Sequence of EIF2AK1 (Q9BQI3 whole entry): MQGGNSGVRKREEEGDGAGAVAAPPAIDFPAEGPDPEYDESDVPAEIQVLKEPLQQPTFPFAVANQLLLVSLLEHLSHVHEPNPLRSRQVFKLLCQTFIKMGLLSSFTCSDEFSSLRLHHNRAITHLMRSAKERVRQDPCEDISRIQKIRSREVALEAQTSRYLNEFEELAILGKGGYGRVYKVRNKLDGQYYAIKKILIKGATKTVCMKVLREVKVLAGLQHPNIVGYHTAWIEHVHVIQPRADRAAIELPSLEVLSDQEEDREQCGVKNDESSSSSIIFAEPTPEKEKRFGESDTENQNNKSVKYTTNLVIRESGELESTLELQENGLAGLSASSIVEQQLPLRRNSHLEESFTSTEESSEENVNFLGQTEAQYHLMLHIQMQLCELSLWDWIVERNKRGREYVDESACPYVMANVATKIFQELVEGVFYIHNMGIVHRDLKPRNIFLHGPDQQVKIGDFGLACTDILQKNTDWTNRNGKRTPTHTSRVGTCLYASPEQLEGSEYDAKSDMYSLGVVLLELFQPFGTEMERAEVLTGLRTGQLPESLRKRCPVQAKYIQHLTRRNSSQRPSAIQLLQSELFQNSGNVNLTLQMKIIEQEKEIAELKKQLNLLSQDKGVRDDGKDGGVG
# Sequence of CAMK1 (Q14012 whole entry): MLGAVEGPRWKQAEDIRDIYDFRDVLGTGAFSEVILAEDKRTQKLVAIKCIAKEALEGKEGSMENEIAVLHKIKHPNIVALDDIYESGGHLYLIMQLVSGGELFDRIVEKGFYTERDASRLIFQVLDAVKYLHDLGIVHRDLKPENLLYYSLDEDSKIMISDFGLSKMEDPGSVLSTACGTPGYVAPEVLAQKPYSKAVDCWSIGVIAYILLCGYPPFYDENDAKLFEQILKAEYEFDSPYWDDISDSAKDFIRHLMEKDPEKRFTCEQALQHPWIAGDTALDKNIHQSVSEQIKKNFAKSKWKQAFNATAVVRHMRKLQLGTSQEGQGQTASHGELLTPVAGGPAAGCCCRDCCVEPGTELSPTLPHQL
Compound,remaining binding at 10 µM [1],remaining binding at 10 µM [2],remaining binding at 10 µM [3],remaining binding at 10 µM [4],remaining binding at 10 µM [5],remaining binding at 10 µM [6],remaining binding at 10 µM [7],"concentration in cortex ([8]; LC-MS/MS, one value per mouse)","concentration in hippocampus [8, 32]","concentration in plasma ([8]; LC-MS/MS, one value per mouse)","concentration in rest of brain ([8]; LC-MS/MS, one value per mouse)",remaining binding at 10 µM [9],remaining binding at 10 µM [10],remaining binding at 10 µM [11],remaining binding at 10 µM [12],remaining binding at 10 µM [13],remaining binding at 10 µM [14],remaining binding at 10 µM [15],remaining binding at 10 µM [16],remaining binding at 10 µM [17],other results
"Nc1ncc(-c2nc3ccccc3o2)c(-c2ccncc2)n1 [Comparative Compound 324, 5-(1,3-benzoxazol-2-yl)-4-(pyridine-4-yl)pyrimidin-2-amine]",80%,99%,100%,88%,88%,78%,68%,0.0143 µg/mL and 0.108 µg/mL and 0.00198 µg/mL and 0.0105 µg/mL and 0.0107 µg/mL and 0.000536 µg/mL and 0.0153 µg/mL and 0.00641 µg/mL,11.9 ng/mL and 87.0 ng/mL and BLQ (2×) and 12.6 ng/mL and 11.5 ng/mL and 15.1 ng/mL and 6.12 ng/mL,0.295 µg/mL and 1.45 µg/mL and 0.0342 µg/mL and 0.23 µg/mL and 0.225 µg/mL and 0.0105 µg/mL and 0.287 µg/mL and 0.138 µg/mL,0.0162 µg/mL and 0.122 µg/mL and 0.00997 µg/mL and 0.00975 µg/mL and 0.0108 µg/mL and 0.00112 µg/mL and 0.016 µg/mL and 0.00709 µg/mL,82%,96%,100%,79%,100%,64%,64%,100%,100%,remaining binding at 10 µM [18]: 99%; remaining binding at 10 µM [19]: 100%; remaining binding at 10 µM [20]: 83%; remaining binding at 10 µM [21]: 61%; remaining binding at 10 µM [22]: 83%; remaining binding at 10 µM [23]: 100%; remaining binding at 10 µM [24]: 6%; remaining binding at 10 µM [25]: 100%; remaining binding at 10 µM [26]: 98%; remaining binding at 10 µM [27]: 51%; remaining binding at 10 µM [28]: 98%; remaining binding at 10 µM [29]: 100%; remaining binding at 10 µM [30]: 84%; remaining binding at 10 µM [31]: 94%
"CNc1c(C(N)=O)c2ccccn2c1C(=O)c1ccc(F)cc1 [Compound A, 2-methyl-amino-3-[(4-fluorophenyl)carbonyl]indolizine-1-carboxamide]",67%,55%,37%,91%,73%,77%,61%,BLQ (2×) and 12.6 ng/mL and 9.67 ng/mL and 14.9 ng/mL and 8.92 ng/mL and 2.51 ng/mL and 17.7 ng/mL,BLQ (3×) and 8.23 ng/mL and 12.8 ng/mL and 9.33 ng/mL and 10.3 ng/mL,0.0126 µg/mL and 0.207 µg/mL and 0.203 µg/mL and 0.274 µg/mL and 0.188 µg/mL and 0.0169 µg/mL and 0.319 µg/mL and 0.0256 µg/mL,BLQ (2×) and 12.7 ng/mL and 10.5 ng/mL and 14.1 ng/mL and 12.9 ng/mL and 19.0 ng/mL and 2.66 ng/mL,65%,100%,100%,93%,99%,32%,13%,100%,85%,"concentration at 8 weeks ([8]; brain, SEM 1.05, read-out: concentration in the brain (Mean ±SEM)): ~0.0111 µg/mL; concentration at 8 weeks ([8]; hippocampus, hippocampus at sacrifice, LC-MS/MS, one value per mouse, read-out: concentration in hippocampus): 0.0105 µg/mL; remaining binding at 10 µM [18]: 78%; remaining binding at 10 µM [19]: 84%; remaining binding at 10 µM [20]: 86%; remaining binding at 10 µM [21]: 79%; remaining binding at 10 µM [22]: 77%; remaining binding at 10 µM [23]: 100%; remaining binding at 10 µM [24]: 48%; remaining binding at 10 µM [25]: 100%; remaining binding at 10 µM [26]: 65%; remaining binding at 10 µM [27]: 35%; remaining binding at 10 µM [28]: 99%; remaining binding at 10 µM [29]: 91%; remaining binding at 10 µM [30]: 64%; remaining binding at 10 µM [31]: 100%"
